Data published in patent US20260158018A1, “PERFUSATE CONTAINING NICOTINAMIDE FOR INTRAOCULAR SURGERY, METHOD OF PREPARATION AND USE THEREOF” (EYE INSTITUTE OF SHANDONG FIRST MEDICAL UNIVERSITY …, priority 2023, published 2026).

Key:
mouse CECs = conditions: mice treated with high IOP, reported in the literature; cited from earlier work
rabbit CECs = assay: Rabbit lens phacoemulsification model with NAM-containing perfusate; assay type: in vivo, New Zealand white rabbits; conditions: for corneal transparency / edema: 2 days after surgery; for corneal transparency / edema / recovery of corneal thickness / protective effect on CECs in phacoemulsification: NAM versus Gln in perfusate; for corneal transparency / edema / recovery of corneal thickness: FIG. 7; for protective effect on CECs in phacoemulsification: conclusion
Experimental: Animals: New Zealand white rabbits (age, 1.5 years; weight, 5-7 kg) were purchased from Jinan Xilingjiao Biological Co., Ltd. New Zealand white rabbits were kept in a pathogen-free environment in the animal house of the Eye Institute of Shandong First Medical University.
Animal model: the pupils were dilated three times with 0.5% compound tropicamide eye drops. Sedation was performed first, and the rabbits were anesthetized according to 20 mg/kg intramuscular injection of xylazine hydrochloride injection and 3% pentobarbital sodium injection (15 mg/kg) intravenously at the ear margin. The right eye of each rabbit was subjected to phacoemulsification for lens removal using the WHITESTAR Signature® Phacoemulsification System (Signature, AMO, USA). The left eye was used as the normal eye. A 3.0-mm clear corneal tunnel incision was made at the position of 11 to 12 o'clock, and continuous curvilinear capsulorhexis was performed in the center of the anterior capsular membrane of the lens, with a torn capsule diameter of approximately 5.0 mm. Phacoemulsification was then performed to suction out the lens contents, including the nucleus of the lens and the residual lens cortex, with the setting of ultrasonication energy of 30-50% and the ultrasonication time of 4-6 min. At the end of the procedure, the New Zealand white rabbits were administered with tobramycin and dexamethasone eye ointment in the conjunctival sac.
Perfusate: balanced salt solution containing 1 mM NAM (refers to compound electrolyte intraocular irrigating solution, Shike®, Shenyang Xingqi Pharmaceutical Co., Ltd.): NAM was added to the balanced salt solution until the concentration of NAM in the perfusate was 1 mM; balanced salt solution containing 2.5 mM NAM: NAM was added to the balanced salt solution until the concentration of NAM in the perfusate was 2.5 mM; balanced salt solution containing 5 mM NAM: NAM was added to the balanced salt solution until the concentration of NAM in the perfusate was 5 mM; balanced salt solution alone as control group: an equal amount of PBS was added to the balanced salt solution.
Immunofluorescence staining: immunofluorescence detection of the expression of functional proteins ZO1 and ATP1A1.
Alizarin Red Staining: gross corneas of New Zealand rabbits were collected and fixed in sterile saline. The cornea was flattened by cutting it into four flaps using ophthalmic microscopic scissors. The corneas were stained with alizarin red staining solution for 2 min, followed by washing the corneas at least three times with sterile saline. Cover slips were put on, changes in the CECs of New Zealand rabbits were observed under a microscope, image acquisition was performed, and all experiments were repeated at least 3 times. Endothelial cell density, coefficient of variation, and hexagonal ratio were determined using alizarin red-stained images of New Zealand rabbit corneas. By using an endothelial microscope by 2 uninformed observers, cell density was normalized to the area of each image in square millimeters. For each image, an area containing at least 60 cells was selected.
Slit lamp photography: changes in corneal transparency in New Zealand rabbits were observed and recorded using a slit lamp.
Corneal thickness test: corneal thickness was analyzed and measured using optical coherence tomography (OCT) to measure central corneal thickness, with no less than three New Zealand rabbits measured at each time point.
Phacoemulsification was performed on New Zealand white rabbits, where NAM-containing intraocular perfusate was used for irrigation, and perfusate of the balanced salt solution alone was used as a control.

Human CECs line B4G12 = assay: Cellular assay: B4G12 cell damage induced by phacoemulsification in vitro; assay type: cell-based; conditions: 1 mM, 2.5 mM and 5 mM NAM; 1 hour and 24 hours after phacoemulsification; sonication 20 seconds, energy 30%; FIG. 8
Experimental: Preparation for cell culture in vitro: Human CECs line B4G12 was selected for culture, original medium was discarded, 3 mL of PBS buffer was added, 6.0 cm cell culture dish was shaken gently, rinsed twice, and PBS buffer was discarded. 1.0 mL of trypsin was added to completely cover the bottom of the dish, and the dish was placed in the incubator for 5 min. The dish gently shaken, tapped, and observed with a microscope. The adherent cells became suspended round cells, then 1.5 mL of complete medium [each 50 mL of human corneal endothelial cell basal medium (H-SFM, Creative Bioarray, New York, USA) supplemented with 1.5 mL of FBS and 0.5 mL of penicillin-streptomycin solution] was added to the flask on the laminar flow cabinet, and trypsin digestion of cells was stopped. The cells on all parts of the bottom of the flask were gently pipetted using the tip of the pipettor so that the cells became fully in suspension. The cell suspension was transferred to a 15 mL centrifuge tube and subjected to centrifugation at 1200 rpm for 5 min. After the centrifugation, the supernatant was discarded, 3 mL of complete medium was added to the centrifuge tube, and a resulting mixture was gently pipetted to eveness. The cells were allowed to resuspend sufficiently, then inoculated into 48-well cell culture plates at a cell density of 1×10^5 and incubated for 24 hours for subsequent experiments. […]

Row | SMILES | protective effect on CECs during high IOP treatment (mouse CECs) | corneal transparency / edema (rabbit CECs) | recovery of corneal thickness (rabbit CECs) | protective effect on CECs in phacoemulsification (rabbit CECs) | apoptosis and cell survival of B4G12 cells after phacoemulsification (Human CECs line B4G12) | intraocular pressure (IOP) after phacoemulsification (rabbit CECs; within 7 days after surgery, versus control group, FIG. 4)
1 | NC(=O)CC[C@H](N)C(=O)O [Gln, glutamine] | protective effect on CECs in mice treated with high IOP | still edematous | recovered more slowly | poor protective effect | – | –
2 | NC(=O)c1cccnc1 [NAM, nicotinamide] | – | transparent | recovered quickly | has a protective effect on CECs | could inhibit apoptosis induced by phacoemulsification and promote cell survival in a concentration-dependent manner | did not cause a pathological increase in IOP within 7 days after surgery
